According to US20260060947A1 (INSTITUT PASTEUR DE MONTEVIDEO, priority 2019, published 2026):
Entries after “also recorded” stand apart in the source; their conditions may differ.

How the values were obtained:
[1] = Cell viability / toxicity by sulforhodamine B assay; format: cell-based; settings: mouse, BV2 microglial cells; BV2 cell culture; read-out: LC50
Procedure: (§1) The murine BV2 microglial cell line was used to analyze the toxicity and anti-inflammatory effects of BANA. Baseline cell viability was established in murine microglia cell line BV2 by sulforhodamine B assay. Briefly, cells were plated in a 96-multiwell plate and incubated with different concentrations of BANA (5-110 μM) for 24 h. After media removal, cells were washed twice with PBS pH=7.4. Cells were fixed with TCA for 1 hour at 4° C. and then washed five times with distilled water. 50 μL of sulforhodamine B 0.4% m/v in 1% acetic acid was added to each well and incubated 30 minutes at room temperature. After staining, the plate was washed at least five times with 1% acetic acid. Once the plate was dry the protein-bound dye was dissolved in 10 mM Tris and the absorbance at 570 nm was read using a microplate spectrophotometer (FIG. 3A).

[2] = test system: murine BV2 microglial cell line; assay: as above; format: cell-based
Procedure: as §1

SOD1^G93A rats [3] = assay: Immunohistochemical analysis of gliosis in the ventral horn of lumbar spinal cord; format: in vivo, rat; settings: 15 days post-paralysis
Procedure: After 15 days of treatment using 100 mg/kg/day of BANA, starting after paralysis onset, animals were deeply anesthetized and transcardial perfusion was performed with 0.9% saline and 4% paraformaldehyde in […] (pH 7.2-7.4). Fixed spinal cords were removed, post-fixed by PFA 4% immersion overnight, and then transverse sectioned (30 m) in a Leica cryostat. Serial sections were collected in 100 mM PBS for immunohistochemistry.
At least 4 rats were analyzed for each immunohistochemistry experiment. Three different conditions were studied as follows: 1) non-transgenic (NonTg) rats of 160-180 days; 2) transgenic SOD1^G93A rats of 195-210 days treated with vehicle (paralysis, 15 d-vehicle) and 3) transgenic SOD1^G93A rats of 195-210 days treated with 50 or 100 mg/kg/day of BANA during 15 days. After treatment animals were deeply anesthetized and transcardial perfusion was performed with paraformaldehyde 4% (v/v) in PBS pH=7.4. Fixed spinal cords were removed, post-fixed by immersion overnight in paraformaldehyde 4% (v/v) in PBS pH=7.4, and then transverse sectioned (30 m) in a Leica cryostat. Serial sections were collected in PBS pH=7.4 for immunohistochemistry.
Free-floating sections were blocked and permeabilized for 1 hour at room temperature with 0.5% Triton X-100 and 5% BSA in PBS (pH=7.4), passed through washing buffered solutions, and incubated overnight at 4° C. in a solution of 0.5% Triton X-100 and BSA 1% in PBS (pH=7.4) containing the primary antibodies: mouse anti-GFAP (G3893 1:400), rabbit anti-GFAP (Sigma #G9269 1:400), mouse anti-S1000 (Sigma #S2532 1:400), rabbit anti-Iba1 (Wako #019-19741, 1:500), rabbit anti-ChAT (Choline acetyltransferase) (Millipore, #AB143, 1:300), mouse anti-CD68 (Abcam, #ab31630, 1:300), rabbit anti-CD34 (Abcam, #ab81289, 1:200), rabbit anti-Ki67 (Abcam, #ab66155, 1:300), rabbit anti-NF-κB-p65 (Abcam, #ab16502, 1:200), rabbit anti-Ki67 (Abcam, #ab16667, 1:200), rabbit anti-ubiquitin (Millipore, #05-1307, 1:200), mouse anti-nitrotyrosine (Millipore, #05233, 1:200), anti-VGlut-1 (SySy, #135-303, 1:300), anti-synaptophysin (Abcam, #206870, 1:300), anti-0111-Tubulin (Millipore, #MAB1637, 1:200).
The inventors assessed the effect of BANA on markers of neuroinflammation in the degenerating spinal cords. SOD1^G93A rats were treated daily with BANA (100 mg/kg) or vehicle at the onset of motor symptoms. After 15 days of treatment, rats were euthanized and spinal cords were dissected for immunohistological analysis.
Experiments to assess the effect of BANA on markers of neuroinflammation in the degenerating spinal cords were conducted in rats. SOD1^G93A rats were treated with BANA (100 mg/kg/day) or vehicle at the onset of symptoms. After 15 days of treatment rats were euthanized and spinal cord was removed for histological analysis.
Microgliosis and astrogliosis were assessed by counting the expression intensity for the different markers in gray matter from the lumbar cord of non-transgenic, SOD1^G93A onset or symptomatic rats that were treated with either vehicle or BANA. The number of aberrant glial cells co-expressing the astrocytic markers GFAP and S1000 was assessed by counting the respective positive cells for both markers in gray matter from the lumbar cord of non-transgenic, SOD1^G93A onset or symptomatic rats that were treated with either vehicle or BANA. The analysis was performed in at least 10 histological sections per animal (three different rats for each condition) using the ImageJ software. Statistical studies were performed using statistical tools of GraphPad Prism 7 software. Descriptive statistics were used for each group, and Kruskal-Wallis analysis, followed by Dunn's comparison test, was used among groups. All results are presented as mean±SEM, with p<0.05 considered significant.

SOD1^G93A rats [4] = assay: Motor neuron analysis in lumbar spinal cord (ChAT, soma size, ubiquitin, nitrotyrosine, synaptic terminals); format: in vivo, rat
Procedure: One of the main features of ALS in both human patients and animal models is motor neuron loss, thus the effect of BANA on motor neuron size and number was characterized. To further investigate the protective effect of BANA on motor neuron pathology in SOD1^G93A symptomatic rats, experiments were conducted to assess the number of synaptic terminals contacting motor neuron cell bodies in the ventral spinal cord as well as the denervation of neuromuscular junctions.
The number of motor neurons expressing ChAT was assessed by counting the positive cells in the gray matter of the lumbar spinal cord of non-transgenic compared with symptomatic SOD1^G93A onset, vehicle- and BANA treated rats. Motor neuron counting was assessed by counting ChAT positive cells in the ventral horn on eight 30 μm sections taken 100 μm apart. The longest axis (length) of each soma was taken into consideration to quantify the mean size of motor neuron soma. The analysis was performed manually in at least 10 histological sections per animal (four different rats for each condition) using the cell counter tool of the ImageJ software. Statistical studies were performed using statistical tools of the GraphPad Prism 7 software. Descriptive statistics were used for each group, and Kruskal-Wallis analysis followed by Dunn's comparison test was used among groups. Results are presented as mean±SEM, with p<0.05 considered significant.
In other experiments, the number of synaptic vesicles contacting motor neuron cell bodies was assessed by immunohistochemistry by counting VGlut-1-positive and Synaptophysin-positive puncta in Rexed laminae VII and IX. Synaptic terminals were quantified in at least 20 motor neurons per animal (4 different rats per condition) using the Analyze Particles tool of ImageJ software.

[5] = 100 mg/kg/day, 15 days after paralysis onset, vs vehicle

O=C(O)c1ccc(/C=C/[N+](=O)[O-])cc1 [BANA, (E)-4-(2-nitrovinyl) benzoic acid]
CC50 at 24 h [1]: 50 µM
IC50 ([2]; Mus musculus, BV-2, BV2 cells, BANA 5-110 μM, 24 h, sulforhodamine B): 51.7 µM
toxicity to BV2 microglia ([2]; low micromolar concentrations): devoid of toxicity
astrogliosis (GFAP) (SOD1^G93A rats [3]; 50 mg/kg/day): failed to reduce
microgliosis (Iba1) (SOD1^G93A rats [3]; 50 mg/kg/day): significantly reduced
astrocytosis (GFAP staining) (SOD1^G93A rats [3]; 100 mg/kg/day, vs vehicle): significantly reduced
cell proliferation in the ventral horn (Ki67-positive nuclei) (SOD1^G93A rats [3]; 100 mg/kg/day, vs vehicle): decreased; also recorded: significantly reduced
emergence of aberrant glial cells (GFAP/S100β) in the surroundings of motor neurons (SOD1^G93A rats [3]; 100 mg/kg/day, vs vehicle): significantly reduced
microgliosis in the ventral horn (Iba1-, CD68-, CD34-positive cells) (SOD1^G93A rats [3]; 100 mg/kg/day, vs vehicle): significantly reduced
loss of VGlut-1-positive and Synaptophysin-positive synaptic terminals (SOD1^G93A rats [4]; 100 mg/kg/day post-paralysis, vs vehicle): significantly prevented
number of ChAT+ motor neurons (SOD1^G93A rats [4]; 100 mg/kg/day, 15 days after paralysis onset): prevented motor neuron loss
NO2-Tyrosine accumulation in surviving motor neurons (SOD1^G93A rats [4]; [5]): significantly prevented
motor neuron size (SOD1^G93A rats [4]; [5]): ameliorated
ubiquitin accumulation / aggregation in motor neurons (SOD1^G93A rats [4]; [5]): significantly prevented
